The values that follow come from patent publication US4539208A, “Combination of thienamycin-type antibiotics with dipeptidase inhibitors” (Merck & Co., Inc., priority 1981, dated 1985).

SMILES strings stand for the structures.

The target in one test is T1, renal dipeptidase (E.C.3.4.13.11) (Sus scrofa, UniProt P22412).
T1 construct: solubilized preparation of dipeptidase isolated from hog kidneys; from tissue; host or cells: hog (pig) kidney
T1 sequence (P22412 17-409): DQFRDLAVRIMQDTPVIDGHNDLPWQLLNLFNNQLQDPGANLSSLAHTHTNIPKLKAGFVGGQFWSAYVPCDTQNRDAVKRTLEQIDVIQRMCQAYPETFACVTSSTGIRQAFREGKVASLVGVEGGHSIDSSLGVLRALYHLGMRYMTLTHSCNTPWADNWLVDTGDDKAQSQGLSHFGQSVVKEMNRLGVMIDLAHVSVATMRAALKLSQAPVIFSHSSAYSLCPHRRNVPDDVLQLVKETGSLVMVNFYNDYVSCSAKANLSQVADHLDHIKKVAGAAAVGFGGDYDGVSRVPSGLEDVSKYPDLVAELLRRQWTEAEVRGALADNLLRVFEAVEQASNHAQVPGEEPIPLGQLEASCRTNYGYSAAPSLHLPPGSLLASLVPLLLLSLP
Description: Inhibition of GDP (glycyldehydrophenylalanine) hydrolysis by solubilized renal dipeptidase. Format: biochemical, hog (pig) kidney.
Settings: not given
Here is the method:
This measured the ability of compounds to inhibit hydrolysis of glycyldehydrophenylalanine (GDP) by a solubilized preparation of dipeptidase isolated from hog kidneys. The procedure is as follows: to a 1 ml. system containing 50 mM "MOPS" (3-(N-morpholino)propanesulfonic acid) buffer, pH 7.1, is added 5 μg of lyophilized enzyme, and the test compound at a final concentration of 0.1 mM. After a five minute incubation at 37° C., GDP is added to a final concentration of 0.05 mM. Incubation is continued for 10 minutes, at 37° C. and hydrolysis of GDP is measured by the change in optical density with time at 275 nm. Inhibition of the enzyme is gauged by comparison to a standard run containing no inhibitor and is expressed as the inhibitor binding constant, Ki.
A 1 ml. system of 50 mM "MOPS" buffer, pH 7.1, is used. To this is added 5 μg of the pig renal enzyme and an amount of the test compound to bring its final concentration to 0.1 mM. After a five minute incubation at 37° C., an amount of GDP is added to bring its final concentration to 0.05 mM. The system is again incubated for 10 minutes, at 37° C. Hydrolysis of GDP is measured by its change in optical density with time at 275 nm. Inhibition of the enzyme is gauged by comparison to a standard run containing no inhibitor and is presented as percent inhibition.
For the compound `C/C=C(\NC(=O)C1CC1)C(=O)O` [Compound 10, Z-2-cyclopropylcarboxamido-2-butenoic acid], the inhibition constant (Ki) (as a rule, the dissociation constant of the complex between target and ligand, obtained from inhibition or displacement) was 9000 nM.
Still for that read-out and setting: then `CCCCC/C=C(\NC(=O)C1CC1(Cl)Cl)C(=O)O` (stereo not shown) [Compound 12], with 59 nM.
Same read-out and setting: in the case of `CN(C)C(=N)NCCCCC/C=C(\NC(=O)C1CC1(C)C)C(=O)O` (stereo not shown) [Compound 16] it was 890 nM; in that of `C/C=C(\NC(=O)CCCCC)C(=O)O` [Compound 28, Z-2-hexanamido-2-butenoic acid], 39000 nM.
On the same count and under the same terms, then `C/C=C(\NC(=O)CCCCCl)C(=O)O` [Compound 36, Z-2-(5-chlorovaleramido)-2-butenoic acid], with 20000 nM.
The compound `CC(C)/C=C(\NC(=O)C1CC1(C)C)C(=O)O` (stereo not shown) [Compound 41] registered a Ki of 1600 nM.
For `CC1(C)CC1C(=O)N/C(=C\CCC(=O)O)C(=O)O` (stereo not shown) [Compound 51], the Ki was found to be 145 nM.
On the same count and under the same terms, in the case of `CCCCCC/C=C(\NC(=O)C1CC1(C)C)C(=O)O` (stereo not shown) [Compound 56] it was 149 nM; in that of `CCCCCCC/C=C(\NC(=O)C1CC1(C)C)C(=O)O` (stereo not shown) [Compound 57], 92 nM.
For the compound `CC1(C)CC1C(=O)N/C(=C\Cc1ccccc1)C(=O)O` (stereo not shown) [Compound 59], affinity was put at a Ki of 440 nM.
Still for that read-out and setting: then `CC1(C)CC1C(=O)N/C(=C\CC1CCCO1)C(=O)O` (stereo not shown) [Compound 65], with 390 nM.

The test is the same for the next values; noted with them: 10^-4 M inhibitor; GDP 0.05 mM; pH 7.1; 37° C.
For the compound `C/C=C(\NC(=O)C1CC1(C)C)C(=O)O` (racemic) [Compound 2, Z-2-(2,2-dimethylcyclopropanecarboxamido)-2-butenoic acid], the inhibition (in general, the relative decrease from the control value, in per cent) at 100 µM came out at 98%.
Same read-out and setting: then `CC1(C)CC1C(=O)N/C(=C\CCCC(=O)O)C(=O)O` (racemic) [Compound 64], with 99%; and `C/C=C(\NC(=O)C1CC1(C)C)C(=O)O` (single isomer, unassigned; (+)) [Compound 2a, (+)-Z-2-(2,2-dimethylcyclopropanecarboxamido)-2-butenoic acid], with 100%.
On to `CC/C=C(\NC(=O)C1CC1(C)C)C(=O)O` (stereo not shown) [Compound 1], for which the % Inhibition (commonly the drop in the measured response relative to a control, in per cent) at 10^-4 M came out at 98%.
Regarding `C/C=C(\NC(=O)C1CC1C)C(=O)O` (stereo not shown) [Compound 3], at 100 µM the inhibition was 92%.
Still for that read-out and setting: in the case of `CC/C=C(\NC(=O)CC(C)C)C(=O)O` [Compound 4] it was 87%; in that of `C/C=C(\NC(=O)CC(C)CC(C)(C)C)C(=O)O` (stereo not shown) [Compound 5], 81%.
The same measure, in the same setting: in the case of `C/C=C(\NC(=O)C1C(C)C1C)C(=O)O` (stereo not shown) [Compound 6] it was 83%; in that of `C/C=C(\NC(=O)CC(C)C)C(=O)O` [Compound 7, Z-2-isovaleramido-2-butenoic acid], 91%.
`C/C=C(\NC(=O)C1CCC1)C(=O)O` [Compound 8] registered an inhibition at 100 µM of 80%.
The same measure, in the same setting: then `C/C=C(\NC(=O)CC1CCC1)C(=O)O` [Compound 9], with 83%.
`C/C=C(\NC(=O)C1CC1)C(=O)O` [Compound 10, Z-2-cyclopropylcarboxamido-2-butenoic acid] registered an inhibition at 100 µM of 97%.
On to `C/C=C(\NC(=O)CC(C)CC)C(=O)O` (stereo not shown) [Compound 11], for which at 100 µM the inhibition was 82%.
The same measure, in the same setting: then `C/C=C(\NC(=O)CC(C)(C)C)C(=O)O` [Compound 18, Z-2-t-butylacetamido-2-butenoic acid], with 75%.
On the same count and under the same terms, in the case of `C/C=C(\NC(=O)CCCCCCC)C(=O)O` [Compound 19, Z-2-octanamido-2-butenoic acid] it was 72%; in that of `C/C=C(\NC(=O)CCC)C(=O)O` [Compound 20, Z-2-butyramido-2-butenoic acid], 69%; in that of `C/C=C(\NC(=O)CCCC1CCCCC1)C(=O)O` [Compound 21], 68%.
On the same count and under the same terms, then `C/C=C(\NC(=O)CC1CC1)C(=O)O` [Compound 22], with 64%; and `C/C=C(\NC(=O)CCCC)C(=O)O` [Compound 23, Z-2-valeramido-2-butenoic acid], with 64%; and `C/C=C(\NC(=O)C1CCCC1)C(=O)O` [Compound 24], with 59%.
On to `C/C=C(\NC(=O)CCCCC(C)C)C(=O)O` [Compound 25, Z-2-(6-methylheptanamido)-2-butenoic acid], for which the inhibition at 100 µM was determined as 57%.
The same measure, in the same setting: then `C/C=C(\NC(=O)CCC1CCCC1)C(=O)O` [Compound 26], with 56%; and `C/C=C(\NC(=O)CCC1CCCCC1)C(=O)O` [Compound 27], with 54%.
With `C/C=C(\NC(=O)CCCCC)C(=O)O` [Compound 28, Z-2-hexanamido-2-butenoic acid], the inhibition at 100 µM came to 54%.
On the same count and under the same terms, in the case of `C/C=C(\NC(=O)CCCCCC)C(=O)O` [Compound 29] it was 49%.
`C/C=C(\NC(=O)C(CC)CCCC)C(=O)O` (stereo not shown) [Compound 30, Z-2-(2-Ethylhexanamido)-2-butenoic acid] returned an inhibition at 100 µM of 33%.
Compound `C/C=C(\NC(=O)C(CCC)CCC)C(=O)O` [Compound 31, Z-2-di-n-propylacetamido-2-butenoic acid] returned an inhibition at 100 µM of 13%.
On the same count and under the same terms, in the case of `C/C=C(\NC(=O)C(C)C)C(=O)O` [Compound 32] it was 31%; in that of `O=C(O)CC/C=C(\NC(=O)C1CC1)C(=O)O` [Compound 33], 90%.
Same read-out and setting: in the case of `C/C=C(\NC(=O)CC(C)CCOC)C(=O)O` (stereo not shown) [Compound 34] it was 88%; in that of `C/C=C(\NC(=O)CCCCCBr)C(=O)O` [Compound 35], 70%.
Same read-out and setting: then `C/C=C(\NC(=O)CCCCCl)C(=O)O` [Compound 36, Z-2-(5-chlorovaleramido)-2-butenoic acid], with 64%; and `C/C=C(\NC(=O)CCCc1ccccc1)C(=O)O` [Compound 37], with 72%; and `C/C=C(\NC(=O)C1CC1C(C)(C)C)C(=O)O` (stereo not shown) [Compound 38], with 90%.
As to `CCCCC/C=C(\NC(=O)CC(C)C)C(=O)O` [Compound 39, Z-2-isovaleramido-2-octenoic acid], the inhibition at 100 µM came to 95%.
The same measure, in the same setting: then `C/C=C(\NC(=O)C1CC1(C)CC)C(=O)O` (stereo not shown) [Compound 40], with 100%.
Still for that read-out and setting: in the case of `CC(C)/C=C(\NC(=O)C1CC1(C)C)C(=O)O` (stereo not shown) [Compound 41] it was 96%.
The same measure, in the same setting: then `C/C=C(\NC(=O)C1CC1(CC)CC)C(=O)O` (stereo not shown) [Compound 42], with 98%; and `C/C=C(\NC(=O)C1CC1CC)C(=O)O` (stereo not shown) [Compound 43], with 96%.
`C/C=C(\NC(=O)C1CC1(C)C(C)C)C(=O)O` (stereo not shown) [Compound 44] gave an inhibition at 100 µM of 95%.
Compound `CC/C=C(\NC(=O)C1CC1(C)C)C(=O)O` (stereo not shown) [Compound 45] had an inhibition at 100 µM of 98%.
Same read-out and setting: in the case of `CC1(C)CC1C(=O)N/C(=C\c1ccccc1)C(=O)O` (stereo not shown) [Compound 46] it was 100%.
In turn, `CCC/C=C(\NC(=O)C1CC1(C)C)C(=O)O` (stereo not shown) [Compound 47] had an inhibition at 100 µM of 98%.
Still for that read-out and setting: in the case of `CC(C)C/C=C(\NC(=O)C1CC1(C)C)C(=O)O` (stereo not shown) [Compound 48] it was 97%; in that of `CCCC/C=C(\NC(=O)C1CC1(C)C)C(=O)O` (stereo not shown) [Compound 49], 100%; in that of `CCCCC/C=C(\NC(=O)C1CC1(C)C)C(=O)O` (stereo not shown) [Compound 50], 100%.
Same read-out and setting: in the case of `CC1(C)CC1C(=O)N/C(=C\CCC(=O)O)C(=O)O` (stereo not shown) [Compound 51] it was 98%; in that of `CC1(C)CC1C(=O)N/C(=C\CC1CCCCC1)C(=O)O` (stereo not shown) [Compound 52], 100%.
In the case of `CC1(C)CC1C(=O)N/C(=C\CCc1ccccc1)C(=O)O` (stereo not shown) [Compound 53], at 100 µM the inhibition was 96%.
Same read-out and setting: in the case of `CSCC/C=C(\NC(=O)C1CC1(C)C)C(=O)O` (stereo not shown) [Compound 54] it was 99%.
Still for that read-out and setting: then `CC1(C)CC1C(=O)N/C(=C\CCS(C)(=O)=O)C(=O)O` (stereo not shown) [Compound 55], with 96%.
The same measure, in the same setting: then `CCCCCC/C=C(\NC(=O)C1CC1(C)C)C(=O)O` (stereo not shown) [Compound 56], with 98%; and `CCCCCCC/C=C(\NC(=O)C1CC1(C)C)C(=O)O` (stereo not shown) [Compound 57], with 99%; and `CCCCCCCCCC/C=C(\NC(=O)C1CC1(C)C)C(=O)O` (stereo not shown) [Compound 58], with 96%.
`CC1(C)CC1C(=O)N/C(=C\Cc1ccccc1)C(=O)O` (stereo not shown) [Compound 59]: the inhibition at 100 µM turned out to be 98%.
Consider `COCC/C=C(\NC(=O)C1CC1(C)C)C(=O)O` (stereo not shown) [Compound 61], for which the inhibition at 100 µM worked out at 98%.
On to `CC(C)CC/C=C(\NC(=O)C1CC1(C)C)C(=O)O` (stereo not shown) [Compound 63], for which the inhibition at 100 µM came to 98%.

Still in this test, the particulars now being: racemate resolved; dextrorotatory isomer has S-configuration.
With `CCCCC/C=C(\NC(=O)C1CC1(C)C)C(=O)O` (racemic) [Z-2-(2,2-dimethylcyclopropanecarboxamido)-2-octenoic acid], the “activity of resolved isomers” value is reported as “The activity resides in the dextrorotatory isomer”.

The next test concerns Staphalococcus aureus. In words: Systemic efficacy of thienamycin with co-administered inhibitor, Staphylococcus aureus infection in mouse. It counts as in vivo. The settings on record: coadministered with thienamycin.
On to `C/C=C(\NC(=O)CC(C)C)C(=O)O` [Compound 7, Z-2-isovaleramido-2-butenoic acid], for which the “enhancement of systemic antibacterial activity of thienamycin” value is reported as “enhanced approximately three-fold”.
